Publication PMC7409368 (Free radical biology & medicine, 2018)

Biological target: T1, Drosophila MSRA (Drosophila melanogaster, UniProt P08761, C232S/C246S)
T1 sequence (P08761 2-246 C232S/C246S): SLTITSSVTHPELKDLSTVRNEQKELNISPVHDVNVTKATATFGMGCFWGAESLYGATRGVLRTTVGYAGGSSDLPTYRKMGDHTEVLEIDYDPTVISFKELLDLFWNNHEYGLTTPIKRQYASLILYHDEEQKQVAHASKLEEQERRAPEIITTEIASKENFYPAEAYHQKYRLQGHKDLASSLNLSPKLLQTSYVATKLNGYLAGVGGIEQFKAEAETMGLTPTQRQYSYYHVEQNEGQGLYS
Experiment: intact protein mass spectrometry after incubation with MetO
Assay type: biochemical
Conditions: no dithiothreitol; oxidation of active site cysteine

C[S+]([O-])CC[C@H](N)C(=O)O (stereo partly drawn) [MetO, L-Methionine Sulfoxide]
intact protein mass spectrometry after incubation with MetO: when the C232S/C246S mutant was incubated with MetO, we observed that the mass
